Usually pKi stands for −log10 of the Ki, conventionally taken in molar units. A word on the pIC50: it is −log10 of the IC50, conventionally taken in molar units. Higher therefore signals a small IC50.

Test [1] deals with T1, CRTh2 receptor (Homo sapiens, UniProt Q9Y5Y4).
T1 sequence (Q9Y5Y4 1-395): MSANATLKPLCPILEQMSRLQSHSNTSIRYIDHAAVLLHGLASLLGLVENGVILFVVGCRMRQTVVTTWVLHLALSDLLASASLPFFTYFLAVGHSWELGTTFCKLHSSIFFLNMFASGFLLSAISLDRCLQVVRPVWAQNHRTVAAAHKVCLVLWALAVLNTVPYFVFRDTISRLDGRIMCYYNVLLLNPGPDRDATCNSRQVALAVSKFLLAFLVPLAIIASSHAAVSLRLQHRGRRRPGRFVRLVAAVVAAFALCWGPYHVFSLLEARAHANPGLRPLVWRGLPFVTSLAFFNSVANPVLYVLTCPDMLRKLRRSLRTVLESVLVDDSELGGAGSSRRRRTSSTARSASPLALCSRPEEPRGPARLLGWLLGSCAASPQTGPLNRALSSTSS
The test can be described thus: Scintillation Proximity Assay (SPA) binding assay, 3H prostaglandin D2. Set-up: expressed in transfected cells; host or cells: K562 or CHO cells (membranes). How it is done:
Scintillation Proximity Assay (SPA) Protocol
Membranes are prepared from K562 or Chinese hamster ovary (CHO) cells stably transfected with human CRTh2 receptors.
The assay is performed in a 96 well U-bottomed polypropylene plate in a final volume of 100 μL. For each concentration of test compound on the dose-response curve, the components of the assay are added sequentially as follows: test compound in DMSO/assay buffer (25 μL), ^3H prostaglandin D2 (25 μL) and CRTh2 membrane fragments (50 μL). The assay is incubated at ambient temperature with shaking for 60 minutes, and then harvested on to filter plates. The plate is dried for 2 hours, prior to addition of Micro-Scint 20™ (50 μL) and sealing with TopSeal-S™. Plates are then counted using a Packard Top Count instrument, each well being counted for 20 minutes. Ki values are determined using Sigma Plot™ software, using the Cheng-Prussoff equation.
On the technique in general: In a scintillation proximity assay essentially only radioactivity close to the scintillant gives light.

The target in test [2] is T1, CRTh2 receptor. The test can be described thus: CRTh2 cAMP functional assay. It is filed as cell-based. Set-up: expressed in transfected cells; host or cells: CHO cells. Conditions: CHO cells stably transfected with CRTh2; 10 nM Prostaglandin D2 and 5 μM forskolin; cAMP Alphascreen. How it is done: CRTh2 cAMP Functional Assay Protocol
For each concentration value on the dose-response curve, test compounds are prepared in assay stimulation buffer/DMSO and 5 μL/well is added to an assay plate (384 well, white optiplate).
CHO cells stably transfected with the CRTh2 receptor are prepared (dissociated from a cell culture flask and washed in PBS) to a concentration of 4×10^6/mL in assay stimulation buffer and added to the assay plate ([…]).
The assay plate is incubated at room temperature on a shaker for 15 minutes.
A mix of agonist (10 nM Prostaglandin D2) and 5 μM forskolin is prepared in assay stimulation buffer and added to the assay plate (5 μL/well).
In addition, a cAMP standard is serially diluted in assay stimulation buffer and added to separate empty wells on the assay plate (20 μL/well).
The assay plate is incubated at room temperature on a shaker for 60 minutes.
A cell lysis mix (lysis buffer containing Alphascreen™ donor beads and biotinylated cAMP) is prepared under darkened conditions 60 minutes prior to addition. Alphascreen™ acceptor beads are added to the lysis mix after 60 minutes. The resulting lysis mix is added to all wells of the assay plate (40 μL/well).
The assay plate is sealed with Topseal-S™ and incubated in the dark at room temperature on a shaker for 45 minutes. The plate is then counted using a Packard Fusion™ instrument.
The resulting counts per minute are converted to nM cAMP by using the prepared cAMP standard curve. IC50 values are then determined using Prism™ software.
(Alpha assays give light when donor and acceptor beads are brought close together.)

Setting [3] is: membranes from K562 or CHO cells stably transfected with human CRTh2, 3H prostaglandin D2, read-out: Ki values in the SPA binding assay.

Molecules are shown by their SMILES. pIC50, pKi: −log10 of the molar value. Like-named read-outs stand apart in the source and are kept apart here.

For the compound `O=C(O)COc1ccc(Cl)cc1C1CCCCCC1` [Example 2, (4-Chloro-2-cycloheptylphenoxy)acetic acid], the pKi in test [1] is 7.22. The pIC50 in test [2] was 6.83.

Turning to `O=C(O)COc1ccc(Br)cc1C1CCCCC1` [Example 3, (4-Bromo-2-cyclohexylphenoxy)acetic acid], the pIC50 in test [2] is 6.72.

With `O=C(O)COc1ccc(Br)cc1C1CCCCCC1` [Example 5, (4-Bromo-2-cycloheptylphenoxy)acetic acid], in test [1] (setting [3]), the pKi is 7.15. The pIC50 in test [2] was 6.86.

Take `O=C(O)COc1ccc(C(F)(F)F)cc1C1CCCCC1` [Example 13, (2-Cyclohexyl-4-trifluoromethyl-phenoxy)-acetic acid]: the negative-log Ki (pKi) in test [1] (setting [3]) is 7.68. In test [2], the pIC50 was 6.86.
